This note sets out measurements from ChEMBL document CHEMBL3232710, “Pyrroloquinolinone-based dual topoisomerase I/II inhibitor” (2014).

Molecules are shown by their SMILES. Active and inactive are the calls of the source. No cut-off for these calls is given here.

For experiment [1], the system named is Nucleic Acid. The experiment in a line: Binding affinity to salmon testes DNA assessed as intercalation at compound to DNA ratio of 0.04 by linear dichroism analysis. Type of experiment: nucleic-acid assay. The settings on record: Salmonidae.
In experiment [2] the test system is HeLa. As to the kind of experiment: Growth inhibition of human HeLa cells after 72 hrs by trypan blue assay. Type of experiment: functional.
For experiment [3], the system named is A-431. As to the kind of experiment: Growth inhibition of human A431 cells after 72 hrs by trypan blue assay. The note with it: A-431, 72 h. Format: functional.
Experiment [4] concerns the target DNA topoisomerase 2-alpha (Homo sapiens) (UniProt P11388). As to the kind of experiment: Inhibition of human recombinant topoisomerase 2-alpha-mediated pBR322 DNA relaxation at 20 uM after 60 mins by agarose gel electrophoresis.
For experiment [5] the target is unchanged. The experiment in a line: Inhibition of human recombinant topoisomerase 2-alpha-mediated pBR322 DNA relaxation at 50 uM after 60 mins by agarose gel electrophoresis.
The target is the same in experiment [6]. The experiment in a line: Inhibition of human recombinant topoisomerase 2-alpha-mediated pBR322 DNA cleavage at 100 uM after 60 mins by agarose gel electrophoresis.
For experiment [7], the system named is HeLa. As to the kind of experiment: Induction of apoptosis in human HeLa cells assessed as DNA fragmentation at 100 uM after 24 hrs by agarose gel electrophoresis. Type of experiment: functional, cell-based.
The species entered for experiment [8] is Bos taurus. The experiment in a line: Inhibition of calf thymus topoisomerase-1-mediated pBR322 DNA relaxation after 60 mins by agarose gel electrophoresis.
For experiment [9], the system named is HL-60. The experiment in a line: Growth inhibition of human HL60 cells after 72 hrs by trypan blue assay. Format: functional. The note with it: HL-60, 72 h.

DNA topoisomerase 2-alpha (Homo sapiens), sequence (P11388 whole entry): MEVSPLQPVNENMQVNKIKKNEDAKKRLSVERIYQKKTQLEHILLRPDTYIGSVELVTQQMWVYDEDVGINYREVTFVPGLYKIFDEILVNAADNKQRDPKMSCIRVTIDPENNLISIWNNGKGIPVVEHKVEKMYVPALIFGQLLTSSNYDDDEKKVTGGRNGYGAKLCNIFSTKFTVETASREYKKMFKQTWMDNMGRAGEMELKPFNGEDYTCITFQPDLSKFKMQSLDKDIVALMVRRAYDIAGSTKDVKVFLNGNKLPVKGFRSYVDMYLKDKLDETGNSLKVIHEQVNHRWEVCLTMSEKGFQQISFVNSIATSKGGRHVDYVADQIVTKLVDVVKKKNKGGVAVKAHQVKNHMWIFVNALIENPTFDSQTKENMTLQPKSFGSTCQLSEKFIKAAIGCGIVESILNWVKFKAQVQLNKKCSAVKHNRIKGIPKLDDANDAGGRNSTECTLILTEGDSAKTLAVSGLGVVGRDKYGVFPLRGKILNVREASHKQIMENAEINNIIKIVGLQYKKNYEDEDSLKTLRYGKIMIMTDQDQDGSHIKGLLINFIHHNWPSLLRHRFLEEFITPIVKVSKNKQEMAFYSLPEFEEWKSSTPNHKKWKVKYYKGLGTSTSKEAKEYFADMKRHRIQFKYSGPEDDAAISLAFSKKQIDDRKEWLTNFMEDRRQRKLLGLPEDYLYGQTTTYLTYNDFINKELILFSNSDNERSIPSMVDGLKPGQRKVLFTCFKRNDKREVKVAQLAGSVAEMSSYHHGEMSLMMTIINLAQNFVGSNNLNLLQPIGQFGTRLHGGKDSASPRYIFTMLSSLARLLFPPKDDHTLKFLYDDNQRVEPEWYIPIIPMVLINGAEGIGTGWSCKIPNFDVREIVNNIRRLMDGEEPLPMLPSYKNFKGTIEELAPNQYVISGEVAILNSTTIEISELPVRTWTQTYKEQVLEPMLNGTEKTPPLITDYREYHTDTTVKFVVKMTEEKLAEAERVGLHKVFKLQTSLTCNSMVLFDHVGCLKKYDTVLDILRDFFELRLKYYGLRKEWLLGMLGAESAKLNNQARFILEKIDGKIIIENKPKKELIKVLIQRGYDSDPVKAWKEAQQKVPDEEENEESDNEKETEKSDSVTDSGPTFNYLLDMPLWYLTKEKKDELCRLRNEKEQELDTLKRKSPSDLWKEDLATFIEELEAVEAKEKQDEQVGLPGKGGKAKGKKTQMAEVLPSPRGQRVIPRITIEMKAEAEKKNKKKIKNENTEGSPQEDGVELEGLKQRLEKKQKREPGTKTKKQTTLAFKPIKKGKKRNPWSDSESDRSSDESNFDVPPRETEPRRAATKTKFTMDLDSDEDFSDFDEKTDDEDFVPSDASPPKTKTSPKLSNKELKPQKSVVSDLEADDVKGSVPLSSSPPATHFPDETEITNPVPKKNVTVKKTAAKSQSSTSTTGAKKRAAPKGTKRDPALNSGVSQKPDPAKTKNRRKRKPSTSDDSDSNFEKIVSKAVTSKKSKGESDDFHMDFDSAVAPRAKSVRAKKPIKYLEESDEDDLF

Turning to `Cc1cc(=O)n2c(C)cc3c(OCCCCNCCN(C)C)ccc1c32`, the outcome in experiment [1] and in experiment [7] was Active. Besides, the results for the GI50 in [2], in [3] and in [9] were 19.7 µM, 13.6 µM and 8.3 µM, respectively. For the same compound, the inhibition result in experiment [4] is “inactive”. The inhibition result in [5] and in [6] was “Active” each time. The inhibition result in [8] is “Dose-dependent effect”.

Consider `Cc1cc(=O)n2c(C)cc3c(OCCCCN(C)C)ccc1c32`, for which the result in experiment [1] was Active. The GI50 in experiment [2] is greater than 50 µM; in experiment [3], 41.3 µM; in experiment [9] it was greater than 50 µM. Moreover, the inhibition entry in experiment [4] and in [5] was “inactive” throughout.

In the case of `Cc1cc(=O)n2c(C)cc3c(OCCCNCCN(C)C)ccc1c32`, in experiment [1], the outcome was Active. Besides, the values for the GI50 in [3] and in [9] were 14.5 µM and greater than 50 µM, respectively. Further, the inhibition result in experiment [5] was “inactive”.

As to `Cc1cc(=O)n2c(C)cc3c(OCCNCCN(C)C)ccc1c32`, the result in [1] was Active. Also, the figures for the GI50 in [2], in experiment [3] and in experiment [9] were greater than 50 µM, 7.5 µM and 25.7 µM, respectively. In addition, the inhibition result in [5] was “Active”.

In the case of `Cc1c2ccncc2c(C)c2c1[nH]c1ccccc12` [ELLIPTECINE], the GI50 worked out at 0.3 µM in experiment [2], 3.2 µM in experiment [3] and 2 µM in [9].

The GI50 is the concentration that inhibits growth by half. A high value points to lower sensitivity of the cells.
